From ChEMBL document CHEMBL1147813, “Design, molecular modeling, synthesis, and anti-HIV-1 activity of new indolyl aryl sulfones. Novel derivatives of the indole-2-carboxamide” (J Med Chem, 2006)

How the values were obtained:
[1] = test system: Human immunodeficiency virus 1; test: Antiviral activity against HIV1; format: functional, organism-based
[2] = test system: Human immunodeficiency virus; test: Activity against HIV-AB1 assessed by inhibition of p24 production in human lymphocytes; format: functional, organism-based; details: Human immunodeficiency virus 1
Lymphocyte = test: Cytotoxicity against human lymphocytes; format: functional; details: read-out: TC50 (the source's name)
[3] = test system: Human immunodeficiency virus; test: Activity against HIV-112 assessed by inhibition of p24 production in human lymphocytes; format: functional, organism-based; details: Human immunodeficiency virus 1
[4] = test system: Human immunodeficiency virus 1; test: Activity against HIV1 3B assessed by inhibition of p24 production in human lymphocytes; format: functional, organism-based; details: Human immunodeficiency virus 1, 3B
C8166 [5] = test: Selectivity index, TC50 for C8166 cell line/EC50 for HIV1; format: functional
[6] = test system: Human immunodeficiency virus 1; test: Antiviral activity against HIV1 3B in MT4 cell line; format: functional, organism-based; details: Human immunodeficiency virus 1, 3B
C8166 [7] = test: Antiproliferative activity against C8166 cell line by MTT assay; format: functional; details: Homo sapiens, read-out: TC50 (the source's name)
MT4 [8] = test: Cytotoxicity against MT4 cell line by MTT assay; format: functional; details: Homo sapiens, read-out: TC50 (the source's name)
[9] = test system: Human immunodeficiency virus 1; test: Antiviral activity against HIV1 in C8166 cell line; format: functional, organism-based; details: Human immunodeficiency virus 1, C8166
[10] = test system: Human immunodeficiency virus 1; test: Antiviral activity against HIV1 Y181C mutant in MT4 cell line; format: functional, organism-based; details: Human immunodeficiency virus 1, MT4
MT4 [11] = test: Selectivity index, TC50 for MT4 cell line/EC50 for HIV1; format: functional
[12] = test system: Human immunodeficiency virus 1; test: Antiviral activity against HIV1 K103N-Y181C mutant in MT4 cell line; format: functional, organism-based; details: Human immunodeficiency virus 1, MT4
[13] = test system: Human immunodeficiency virus 1; test: Antiviral activity against HIV1 in MT4 cell line; format: functional, organism-based; details: Human immunodeficiency virus 1, MT4; read-out: EC50

Compound	EC50 [1]	further results
O=[N+]([O-])c1cc(Cl)ccc1-n1ccc2ccccc21	4800 nM	–
NNC(=O)c1[nH]c2ccc(Cl)cc2c1S(=O)(=O)c1cc(Cl)ccc1N	300 nM	–
Cc1cc(C)cc(S(=O)(=O)c2c(C(=O)NCCO)[nH]c3ccc(Cl)cc23)c1	0.8 nM	–
O=C1Nc2ccc(Cl)cc2[C@@](C#CC2CC2)(C(F)(F)F)O1 [EFAVIRENZ]	–	EC50 [2]: > 20000 nM; CC50 (Lymphocyte): > 100000 nM; EC50 [3]: > 20000 nM; EC50 [4]: 7 nM
Cc1ccc(Sc2c(C(=O)NCCO)[nH]c3ccc(Cl)cc23)cc1	120 nM	–
NC(=O)c1[nH]c2ccc(Cl)cc2c1S(=O)(=O)c1c(Cl)cccc1Cl	100 nM	–
Cc1ccc(S(=O)(=O)c2c(C(N)=O)[nH]c3ccc(Cl)cc23)c(C)c1	4 nM	–
Cc1cccc(Sc2c(C(=O)NCCO)[nH]c3ccc(Cl)cc23)c1	80 nM	–
Cc1ccc(S(=O)(=O)c2c(C(=O)NNCCO)[nH]c3ccc(Cl)cc23)c(C)c1	80 nM	–
CCOC(=O)c1[nH]c2ccccc2c1Sc1ccccc1	1400 nM	–
Cc1cccc(S(=O)(=O)c2c(C(N)=O)[nH]c3ccc(Cl)cc23)c1	1 nM	–
Cc1cc(C)cc(Sc2c(C(=O)NNCCO)[nH]c3ccc(Cl)cc23)c1	30 nM	–
Cc1ccc(S(=O)(=O)c2c(C(=O)NNCCO)[nH]c3ccc(Cl)cc23)cc1	40 nM	–
Cc1cc(C)cc(Sc2c(C(N)=O)[nH]c3ccc(Cl)cc23)c1	6 nM	–
Cc1cccc(S(=O)(=O)c2c(C(=O)NCCO)[nH]c3ccc(Cl)cc23)c1	3 nM	–
Cc1ccccc1S(=O)(=O)c1c(C(=O)NCCO)[nH]c2ccc(Cl)cc12	31 nM	–
O=[N+]([O-])c1ccc(Cl)cc1-n1ccc2ccccc21	5400 nM	–
CC(C)OC(=O)c1cn(S(=O)(=O)c2ccccc2)c2ccccc12	> 54000 nM	–
NNC(=O)c1[nH]c2ccc(Cl)cc2c1Sc1ccc(F)cc1	5000 nM	–
NC(=O)c1cn(S(=O)(=O)c2ccccc2)c2ccccc12	> 32000 nM	–
CCOC(=O)c1cc2cc(Cl)ccc2n1S(=O)(=O)c1ccc(Cl)cc1	> 200000 nM	–

Compound	EC50 [1]	further results
CCOC(=O)c1cn(S(=O)(=O)c2ccccc2)c2ccc(Cl)cc12	> 42000 nM	–
O=C(NCCO)c1[nH]c2ccc(Cl)cc2c1Sc1ccccc1	40 nM	–
NNC(=O)c1[nH]c2ccc(Cl)cc2c1S(=O)(=O)c1ccc(Cl)cc1	190 nM	–
O=[N+]([O-])c1ccccc1-n1ccc2ccccc21	5300 nM	–
Cc1cc(C)cc(S(=O)(=O)c2c(C(N)=O)[nH]c3ccc(Br)cc23)c1	2 nM	–
Cc1ccccc1S(=O)(=O)c1c(C(N)=O)[nH]c2ccc(Cl)cc12	1 nM	–
NC(=O)c1[nH]c2ccccc2c1S(=O)(=O)c1ccccc1	180 nM	–
Nc1ccccc1-n1ccc2ccccc21	4960 nM	–
CCOC(=O)c1cc2cc(Cl)ccc2n1S(=O)(=O)c1cc(Cl)ccc1N	8300 nM	–
Cc1cccc(Sc2c(C(=O)NCCO)[nH]c3ccc(Cl)cc23)c1C	100 nM	–
NC(=O)c1[nH]c2ccccc2c1S(=O)(=O)c1cc(Cl)ccc1N	300 nM	–
Cc1cccc(S(=O)(=O)c2c(C(=O)NNCCO)[nH]c3ccc(Cl)cc23)c1	7 nM	–
Cc1cc(C)cc(Sc2c(C(=O)NCCO)[nH]c3ccc(Cl)cc23)c1	12 nM	–
Cc1cc(C)cc(S(=O)(=O)c2c(C(=O)NCC(N)=O)[nH]c3ccc(Cl)cc23)c1	–	Selectivity index (C8166 [5]): >5000; EC50 [6]: 10 nM; CC50 (C8166 [7]): > 100000 nM; CC50 (MT4 [8]): 45000 nM; EC50 [9]: 20 nM; EC50 [10]: 50 nM; Selectivity index (MT4 [11]): 4500; EC50 [12]: 1200 nM; EC50 [13]: 10 nM
Cc1cc(C)cc(S(=O)(=O)c2c(C(=O)NCC(=O)NN)[nH]c3ccc(Cl)cc23)c1	–	Selectivity index (C8166 [5]): >5000; EC50 [6]: 20 nM; CC50 (C8166 [7]): > 100000 nM; CC50 (MT4 [8]): > 100000 nM; EC50 [9]: 20 nM; EC50 [10]: 60 nM; Selectivity index (MT4 [11]): >5000; EC50 [12]: 2600 nM; EC50 [13]: 20 nM
CCOC(=O)c1[nH]c2ccccc2c1Sc1cc(Cl)ccc1N	≥ 200000 nM	–
CCOC(=O)c1[nH]c2ccccc2c1Sc1ccccc1N	> 200000 nM	–
Cc1cc(C)cc(S(=O)(=O)c2c(C(N)=O)[nH]c3ccc(Cl)cc23)c1	4 nM	–
O=[N+]([O-])c1ccc(Cl)c(-n2ccc3ccccc32)c1	5220 nM	–
Cc1ccc(Sc2c(C(N)=O)[nH]c3ccc(Cl)cc23)cc1	> 450 nM	–
CCOC(=O)c1cc2ccccc2n1S(=O)(=O)c1ccccc1[N+](=O)[O-]	1800 nM	–

Compound	EC50 [1]	further results
NNC(=O)c1[nH]c2ccccc2c1S(=O)(=O)c1ccccc1	530 nM	–
Nc1ccc(Cl)c(-n2ccc3ccccc32)c1	3820 nM	–
NC(=O)c1[nH]c2ccc(Cl)cc2c1S(=O)(=O)c1ccccc1 [L-737126]	1 nM	–
O=C(NCCO)c1[nH]c2ccc(Cl)cc2c1S(=O)(=O)c1ccccc1	1 nM	–
Nc1ccc(Cl)cc1-n1ccc2ccccc21	6000 nM	–
Cc1ccc(S(=O)(=O)c2c(C(=O)NN)[nH]c3ccc(Cl)cc23)cc1	50 nM	–
Cc1ccccc1S(=O)(=O)c1c(C(=O)NNCCO)[nH]c2ccc(Cl)cc12	50 nM	–
Cc1ccccc1Sc1c(C(=O)NCCO)[nH]c2ccc(Cl)cc12	50 nM	–
Cc1cc(C)cc(S(=O)(=O)c2c(C(=O)NN)[nH]c3ccc(Cl)cc23)c1	130 nM	–
Cc1ccccc1Sc1c(C(N)=O)[nH]c2ccc(Cl)cc12	300 nM	–
CCOC(=O)c1[nH]c2ccc(Cl)cc2c1S(=O)(=O)c1ccccc1N	> 200000 nM	–
Cc1ccc(Sc2c(C(=O)NNCCO)[nH]c3ccc(Cl)cc23)cc1	600 nM	–
O=S(=O)(c1ccccc1)n1ccc2cc(Cl)ccc21	> 75000 nM	–
NNC(=O)c1[nH]c2ccc(Cl)cc2c1Sc1ccc(Cl)cc1	10000 nM	–
NC(=O)c1[nH]c2ccccc2c1Sc1cc(Cl)ccc1N	9000 nM	–
NC(=O)c1[nH]c2ccc(Cl)cc2c1S(=O)(=O)c1cc(Cl)ccc1N	40 nM	–
CCOC(=O)c1cn(S(=O)(=O)c2ccccc2)c2ccccc12	> 32000 nM	–
NNC(=O)c1[nH]c2ccc(Cl)cc2c1Sc1cc(Cl)ccc1N	> 13000 nM	–
CC(C)(C)c1ccc(Sc2c(C(N)=O)[nH]c3ccc(Cl)cc23)cc1	8000 nM	–
NNC(=O)c1[nH]c2ccc(Cl)cc2c1S(=O)(=O)c1ccc(F)cc1	320 nM	–
CCOC(=O)c1cc2cc(Cl)ccc2n1S(=O)(=O)c1cc(Cl)ccc1[N+](=O)[O-]	> 31000 nM	–

Compound	EC50 [1]	further results
O=S(=O)(c1ccccc1)n1ccc2ccccc21	> 150000 nM	–
NNC(=O)c1cc2ccccc2n1S(=O)(=O)c1ccccc1	> 200000 nM	–
CC(C)c1ccc(S(=O)(=O)c2c(C(N)=O)[nH]c3ccc(Cl)cc23)cc1	80 nM	–
Cc1ccc(Sc2c(C(=O)NNCCO)[nH]c3ccc(Cl)cc23)c(C)c1	1200 nM	–
Cc1cc(C)cc(S(=O)(=O)c2c(C(=O)NNCCO)[nH]c3ccc(Cl)cc23)c1	1 nM	–
NNC(=O)c1[nH]c2ccc(Cl)cc2c1Sc1ccccc1	550 nM	–
Nc1cc(Cl)ccc1-n1ccc2ccccc21	4130 nM	–
Cc1ccccc1Sc1c(C(=O)NNCCO)[nH]c2ccc(Cl)cc12	100 nM	–
NNC(=O)c1[nH]c2ccc(Cl)cc2c1S(=O)(=O)c1ccccc1	10 nM	–
NC(=O)c1[nH]c2ccc(Cl)cc2c1Sc1ccccc1	20 nM	–
O=C(NNCCO)c1[nH]c2ccc(Cl)cc2c1S(=O)(=O)c1ccccc1	10 nM	–
NC(=O)c1cc2cc(Cl)ccc2n1S(=O)(=O)c1ccccc1	66600 nM	–
Cc1ccc(S(=O)(=O)c2c(C(=O)NCCO)[nH]c3ccc(Cl)cc23)cc1	43 nM	–
CCOC(=O)c1cc2cc(Cl)ccc2n1S(=O)(=O)c1ccccc1	> 200000 nM	–
CCOC(=O)c1cc2cc(Cl)ccc2n1S(=O)(=O)c1ccc(C)cc1	> 200000 nM	–
CC(C)OC(=O)c1cn(S(=O)(=O)c2ccccc2)c2ccc(Cl)cc12	> 200000 nM	–
CCOC(=O)c1cc2ccccc2n1S(=O)(=O)c1ccc(Cl)cc1	> 100000 nM	–
CCOC(=O)c1cc2ccccc2n1S(=O)(=O)c1cc(Cl)ccc1[N+](=O)[O-]	> 100000 nM	–
O=C(NNCCO)c1[nH]c2ccc(Cl)cc2c1Sc1ccccc1	200 nM	–
Cc1ccc(S(=O)(=O)c2c(C(N)=O)[nH]c3ccc(Cl)cc23)cc1	3 nM	–
Cc1ccc(S(=O)(=O)c2c(C(=O)NCCO)[nH]c3ccc(Cl)cc23)c(C)c1	8 nM	–
